The source made the active and inactive calls. The rule behind the calls is not given here.
Columns and labels:
DBTRG-05MG [1] = test: Synergistic cytotoxicity against human DBTRG-05MG cells assessed as synergistic effect index at 89.9 uM after 48 hrs in presence of 103 uM TMZ by MTT assay; type: functional
DBTRG-05MG [2] = test: Synergistic cytotoxicity against human DBTRG-05MG cells assessed as synergistic effect index at 89.9 uM after 48 hrs in presence of 309 uM TMZ by MTT assay; type: functional
DBTRG-05MG [3] = test: Synergistic cytotoxicity against human DBTRG-05MG cells assessed as synergistic effect index at 134.9 uM after 48 hrs in presence of 309 uM TMZ by MTT assay; type: functional
DBTRG-05MG [4] = test: Synergistic cytotoxicity against human DBTRG-05MG cells assessed as synergistic effect index at 134.9 uM after 48 hrs in presence of 412.1 uM TMZ by MTT assay; type: functional
DBTRG-05MG [5] = test: Synergistic cytotoxicity against human DBTRG-05MG cells assessed as combination index at 112.4 uM after 48 hrs in presence of 515.1 uM TMZ by MTT assay; type: functional
DBTRG-05MG [6] = test: Synergistic cytotoxicity against human DBTRG-05MG cells assessed as combination index at 134.9 uM after 48 hrs in presence of 103 uM TMZ by MTT assay; type: functional
RG2 [7] = test: Synergistic cytotoxicity against rat RG2 cells assessed as synergistic effect index at 134.9 uM after 48 hrs in presence of 412.1 uM TMZ by MTT assay; type: functional
RG2 [8] = test: Synergistic cytotoxicity against rat RG2 cells assessed as combination index at 89.9 uM after 48 hrs in presence of 206 uM TMZ by MTT assay; type: functional
[9] = Synergistic cytotoxicity against rat CTX TNA2 cells assessed as synergistic effect index at 134.9 uM after 48 hrs in presence of 515.1 uM TMZ by MTT assay; type: cell-based; details: ctx tna2, 48 h
[10] = Synergistic cytotoxicity against rat CTX TNA2 cells assessed as combination index at 112.4 uM after 48 hrs in presence of 412.1 uM TMZ by MTT assay; type: cell-based; details: ctx tna2, 48 h
[11] = Synergistic cytotoxicity against rat CTX TNA2 cells assessed as combination index at 134.9 uM after 48 hrs in presence of 309 uM TMZ by MTT assay; type: cell-based; details: ctx tna2, 48 h
DBTRG-05MG [12] = test: Induction of cell cycle arrest in human DBTRG-05MG cells assessed as accumulation at S phase at 112.4 uM after 24 hrs by propidium iodide staining based flow cytometric analysis (reference value: 22.76 +/- 1.56%); type: functional
DBTRG-05MG [13] = test: Induction of cell cycle arrest in human DBTRG-05MG cells assessed as CDK2 expression at 112.4uM after 48 hrs by Western blot analysis (reference value: 1); type: functional
RG2 [14] = test: Induction of cell cycle arrest in rat RG2 cells assessed as CDK4 expression at 112.4 uM after 48 hrs by Western blot analysis (reference value: 1); type: functional
RG2 [15] = test: Induction of cell cycle arrest in rat RG2 cells assessed as CyclinD1 expression at 112.4 uM after 48 hrs by Western blot analysis (reference value: 1); type: functional
RG2 [16] = test: Induction of cell cycle arrest in rat RG2 cells assessed as CDK4 expression at 112.4 uM after 48 hrs in presence of TMZ by Western blot analysis (reference value: 1); type: functional
[17] = Effect on JNK expression in human DBTRG-05MG cells at 112.4uM after 48 hrs in presence of TMZ by Western blot analysis (reference value: 1); type: functional
RG2 [18] = test: Inhibition of p38 phosphorylation at Tyr182 residues in rat RG2 cells at 112.4uM after 48 hrs by Western blot analysis (reference value: 1); type: cell-based
[19] = Effect on ERK expression in rat RG2 cells at 112.4uM after 48 hrs in presence of TMZ by Western blot analysis (reference value: 1); type: functional
DBTRG-05MG [20] = test: Induction of apoptosis in human DBTRG-05MG cells assessed as increase in apoptotic body formation at 112.4 uM after 48 hrs by TUNEL assay; type: functional, cell-based
DBTRG-05MG [21] = test: Induction of apoptosis in human DBTRG-05MG cells assessed as phosphorylated PARP expression at 112.4 uM after 48 hrs in presence of TMZ by Western blot analysis (reference value: 1); type: functional
RG2 [22] = test: Induction of apoptosis in rat RG2 cells assessed as cleaved PARP expression at 112.4 uM after 48 hrs by Western blot analysis (reference value: 1); type: functional
RG2 [23] = test: Induction of apoptosis in rat RG2 cells assessed as cleaved caspace-9 expression at 112.4 uM after 48 hrs in presence of TMZ by Western blot analysis (reference value: 1); type: functional
RG2 [24] = test: Induction of apoptosis in rat RG2 cells assessed as cleaved PARP expression at 112.4 uM after 48 hrs in presence of TMZ by Western blot analysis (reference value: 1); type: functional
RG2 [25] = test: Induction of DNA damage in rat RG2 cells assessed as Chk1 phosphorylation at ser345 at 112.4 uM after 48 hrs by Western blot analysis (reference value: 1); type: functional
DBTRG-05MG [26] = test: Induction of DNA damage in human DBTRG-05MG cells assessed as H2A.X phosphorylation at ser139 residues at 112.4 uM after 48 hrs in presence of TMZ by Western blot analysis (reference value: 1); type: functional
DBTRG-05MG [27] = test: Antitumour activity against human DBTRG-05MG cells xenografted in BALB/c nude mouse assessed as reduction in tumour growth at 75 mg/kg, sc for every 2 days for 20 days and measured every 2 days; type: functional, organism-based; details: time 20.0 day
DBTRG-05MG [28] = test: Potentiation of TMZ-induced antitumor activity against human DBTRG-05MG cells xenografted in BALB/c nude mouse assessed as increase in apoptotic cells at 75 mg/kg, sc co-treated with TMZ for 18 days by TUNEL assay; type: functional, organism-based; details: time 18.0 day
DBTRG-05MG [29] = test: Potentiation of TMZ-induced antitumor activity against human DBTRG-05MG cells xenografted in BALB/c nude mouse assessed as reduction in MGMT expression at 75 mg/kg, sc co-treated with TMZ for 18 days by fluorescent immunocytochemistry method; type: functional, organism-based; details: time 18.0 day
RG2 [30] = test: Induction of cell cycle arrest in rat RG2 cells assessed as accumulation at G0/G1 phase at 206 uM after 12 hrs by propidium iodide staining based flow cytometric analysis (reference value: 57.81 +/- 1.9%); type: functional
DBTRG-05MG [31] = test: Induction of cell cycle arrest in human DBTRG-05MG cells assessed as CyclinD1 expression at 206 uM after 48 hrs by Western blot analysis (reference value: 1); type: functional
RG2 [32] = test: Induction of cell cycle arrest in rat RG2 cells assessed as p21 expression at 206 uM after 48 hrs by Western blot analysis (reference value: 1); type: functional
[33] = Effect on JNK expression in rat RG2 cells at 206 uM after 48 hrs by Western blot analysis (reference value: 1); type: functional
DBTRG-05MG [34] = test: Induction of apoptosis in human DBTRG-05MG cells assessed as increase in chromatin condensation at 206 uM after 48 hrs by TUNEL assay; type: functional, cell-based
DBTRG-05MG [35] = test: Induction of apoptosis in human DBTRG-05MG cells assessed as phosphorylated caspace-9 expression at 206 uM after 48 hrs by Western blot analysis (reference value: 1); type: functional

Question: Which Activity_index (DBTRG-05MG [1]) does the source give for `C[C@@H]1CC[C@H]2C(C)(C)[C@H]3C[C@@]12CC[C@@]3(C)O` [CEDROL] here?
Answer: 0.66

Question: What about the Activity_index (DBTRG-05MG [2]) of the same molecule?
Answer: 0.75

Question: What about the Activity_index (DBTRG-05MG [3]) of the same molecule?
Answer: 0.89

Question: And the Activity_index (DBTRG-05MG [4])?
Answer: 0.9

Question: And the CI (DBTRG-05MG [5])?
Answer: 0.7

Question: What about the CI (DBTRG-05MG [6]) of the same molecule?
Answer: 0.64

Question: What about the Activity_index (RG2 [7]) of the same molecule?
Answer: 0.9

Question: What about the CI (RG2 [8]) of the same molecule?
Answer: 0.98

Question: What about the Activity_index [9] of the same molecule?
Answer: 0.7

Question: And the CI [10]?
Answer: 1.1

Question: What about the CI [11] of the same molecule?
Answer: 1.13

Question: And the Activity (DBTRG-05MG [12])?
Answer: 16.03%

Question: What about the “fold change (FC)” value (DBTRG-05MG [13]) of the same molecule?
Answer: 0.7

Question: And the “fold change (FC)” value (RG2 [14])?
Answer: 0.8

Question: What about the “fold change (FC)” value (RG2 [15]) of the same molecule?
Answer: 1.4

Question: What about the “fold change (FC)” value (RG2 [16]) of the same molecule?
Answer: 0.5

Question: And the “fold change (FC)” value [17]?
Answer: 0.4

Question: And the fold change (FC) (RG2 [18])?
Answer: 1.3

Question: And the “fold change (FC)” value [19]?
Answer: 0.7

Question: What about the Activity (DBTRG-05MG [20]) of the same molecule?
Answer: Active

Question: What about the “fold change (FC)” value (DBTRG-05MG [21]) of the same molecule?
Answer: 0.4

Question: What about the “fold change (FC)” value (RG2 [22]) of the same molecule?
Answer: 1.4

Question: What about the “fold change (FC)” value (RG2 [23]) of the same molecule?
Answer: 1.8

Question: And the “fold change (FC)” value (RG2 [24])?
Answer: 1.6

Question: And the “fold change (FC)” value (RG2 [25])?
Answer: 1.1

Question: What about the “fold change (FC)” value (DBTRG-05MG [26]) of the same molecule?
Answer: 1.2

Question: What about the Activity (DBTRG-05MG [27]) of the same molecule?
Answer: Active

Question: And the Activity (DBTRG-05MG [28])?
Answer: Active

Question: What about the Activity (DBTRG-05MG [29]) of the same molecule?
Answer: Active

Question: Which results are given for `Cn1nnc2c(C(N)=O)ncn2c1=O` [TEMOZOLOMIDE]?
Answer: Activity (RG2 [30]): 49.55%; fold change (FC) (DBTRG-05MG [31]): 0.5; fold change (FC) (RG2 [32]): 2.3; fold change (FC) [33]: 1; Activity (DBTRG-05MG [34]): Active; fold change (FC) (DBTRG-05MG [35]): 0.3

Reference: ChEMBL document CHEMBL4699511, “Cedrol, a Sesquiterpene Alcohol, Enhances the Anticancer Efficacy of Temozolomide in Attenuating Drug Resistance via Regulation of the DNA Damage Response and MGMT Expression” (J Nat Prod, 2020)
